According to patent US10842806B2, “Methods for treating ocular inflammatory disorders” (Massachusetts Eye and Ear Infirmary, priority 2011, dated 2020):

System: WT BMDCs
Test: BMDC maturation with AICAR plus adenosine kinase inhibitor or nucleoside transporter inhibitor
Format: cell-based, mice
Details: CD40, CD80, CD86, I-A^b by FACS
Procedure: FIG. 15 depicts the combined effect of AICAR and a nucleoside transporter or an adenosine kinase inhibitor on BMDC maturation. WT BMDCs were stimulated with LPS and 1 mM AICAR in the presence or absence of 0.1 mM IODO or 1 μM DPY. The number of CD11c-gated CD40, CD80, CD86 and I-A^b positive cells was measured by FACS. Bars represent mean±SD from three independent experiments. BMDCs were generated as previously described (Wang et al. (2005) IMMUNOL. LETT. 98:123-130). Briefly, bone marrow was flushed from the femurs and tibias of naive mice (6 to 8-week-old WT or AMPKα1 KO mice). The red blood cells were lysed using Red Blood Cell Lysing Buffer (Sigma). Approximately 2×10^6 cells were cultured in complete medium (RPMI 1640 medium containing 10% FBS, […], 10 mM HEPES [pH 7.4], 2 mM glutamine, 100 U/ml penicillin, and […]) including 10 ng/ml GM-CSF (Pepro Tech, London, England). Fresh media was added to the cells on day 4 of culture, and nonadherent cells and loosely adherent cells were collected as immature DCs on day 7. Immature DCs were stimulated with 100 ng/ml LPS (Salmonella typhimurium; Sigma) for 24 hours to obtain mature DCs. In some experiments, AICAR was added to the culture. […] To further study AICAR's suppressive effect, an adenosine kinase inhibitor (IODO) was used to inhibit AICAR conversion to ZMP. […]

SMILES | Effect on downregulation of co-stimulatory molecule expression by AICAR (0.1 mM IODO with LPS and 1 mM AICAR) | Effect on AICAR-mediated suppression of co-stimulatory molecule expression (1 μM DPY with LPS and 1 mM AICAR)
Nc1ncnc2c1c(I)cn2[C@@H]1O[C@H](CO)[C@@H](O)[C@H]1O [IODO] | did not affect | –
OCCN(CCO)c1nc(N2CCCCC2)c2nc(N(CCO)CCO)nc(N3CCCCC3)c2n1 [DPY] | – | reversed
